# Assay results taken from publication PMC4738305, “Metabolism and Disposition of Aditoprim in Swine, Broilers, Carp and Rats” (Scientific Reports, 2016).
# Several values for one entry are separate records, joined by “and”; a condition that tells them apart may be missing. Equal values may be shown once.
# Key:
# [1] = Tissue distribution and elimination of total radioactivity (total residues) after oral ^3H-ADP for 7 d; format: in vivo, swine
# Procedure: (§1) (0.1 Ci/g) through oral gavage for 7 consecutive days. All the animals were housed on the basis of their group in the cages or aquaria throughout the whole study period. A group of animals was slaughtered through exsanguination under diethyl ether inhalation of anesthesia in the period of 6 h, 1, 3, 7, 14, and 21 d after the administration. The blood samples were immediately collected into the heparinized tubes and was centrifuged at 1920 × g at 4 °C for 10 min to obtain the plasma. The tissues from the heart, liver, spleen, lung, kidney, craw (broilers), stomach, intestine, fat, skin, muscle, thymus, pancreas, bile, bladder, hair (scale for carp), genital gland, adrenal glands, swim bladder (carp), brain, lymph, and bursa (broilers) were carefully excised and collected. The tissues were thoroughly rinsed with the deionized water to remove the residuary blood, blotted to dryness, and finally to perform the homogenization. In order to avoid cross-contamination the dissecting instruments were washed during the tissue procurements. The blank tissues were collected in order to provide control matrices. The total radioactivity levels in each sample were determined through LSC. The samples extracted from the plasma, bile, and tissues of the liver, kidney, muscle, and fat/skin were analyzed through LC/MS-IT-TOF and v. ARC radiometric detection for metabolite profiling.
# (§2) Measurements of the total radioactivity in each sample were conducted by Packard Tri-Carb 2900 TR liquid scintillation counter (PerkinElmer Life and Analytical Sciences). The detection time was 10 min for two cycles. The scintillation counter data were automatically corrected for counting efficiency by instrument-stored quench curve which was drawn with a series of sealed quenched […] standards. The actual radioactivity of each sample was calculated by subtracting the background value form the mean radioactivity in two blank samples. All the samples were analyzed in duplicate if the sample size allowed this. If the results were differed by more than 10% from the mean value, the samples were reanalyzed. The samples with LSC counts less than 2-fold of the level of the running background were considered to contain insufficient radioactivity for reliable quantification.
# (§3) Aliquots of liquid samples (urine, plasma, bile and raised water, 200 μL) were mixed with 10 mL of Ultima Gold^TM scintillation fluid for the direct analysis by LSC. Aliquots of solid samples (feces and tissues, 200 mg) were digested overnight with 2 mL tissue solubilizer at 50 °C in a shaking water bath, followed by adding 200 μL of 0.1 mol/L EDTA-Na and 200 μL of 30% H2O2, and was bathed at 50 °C for 2 h to bleach. The obtained transparent liquid were mixed with 10 mL of scintillation fluid and finally were counted by LSC. The digestion efficiency was determined by using the blank samples spiked with ^3 H standard for digestion, and the measured radioactivity content in the digested samples were adjusted by using the digestion efficiency values.
# (§4) The concentrations of ADP and/or its metabolites were analyzed by using the following equation: C = L/(2.22 × 10^9 × RM), where C is the concentration of ADP or/and its metabolites (mg/kg), L is the LSC count (dpm), R is the specific activity of the administered dose (0.1 Ci/g), and M is the weight or volume of samples (kg or L). The results are expressed as mean ± SD. The elimination kinetics of terminal phase for ADP and its metabolites were conducted by using the WinNonlin linear regression program (Pharsight corporation, Statistical consultants, Inc., Kentucky, USA).
# [2] = as above; format: in vivo, carp; parameters: Ke of total residues: unit not given here
# Procedure: as §1, §2, §3, §4
structure (smiles),measurement,setting,value
[3H]c1c(Cc2cnc(N)nc2N)cc(OC)c(N(C)C)c1OC [^3H-ADP],Ke of total residues,[1]; swine Adrenal,0.28
same,Ke of total residues,[1]; swine Bile,0.71
same,Ke of total residues,[1]; swine Bladder,0.50
same,Ke of total residues,[1]; swine Blood,0.48
same,Ke of total residues,[1]; swine Clothing hair,0.17
same,Ke of total residues,[1]; swine Fat,0.20
same,Ke of total residues,[1]; swine Heart,0.29
same,Ke of total residues,[1]; swine Kidney,0.21
same,Ke of total residues,[1]; swine Large Intestine,0.47
same,Ke of total residues,[1]; swine Liver,0.16
same,Ke of total residues,[1]; swine Lung,0.28
same,Ke of total residues,[1]; swine Lymph,0.46
same,Ke of total residues,[1]; swine Muscle,0.41
same,Ke of total residues,[1]; swine Pancreas,0.27
same,Ke of total residues,[1]; swine Skin,0.42
same,Ke of total residues,[1]; swine Small Intestine,0.54
same,Ke of total residues,[1]; swine Spleen,0.20
same,Ke of total residues,[1]; swine Stomach,0.52
same,Ke of total residues,[1]; swine Thymus,0.37
same,Ke of total residues,[2]; carp Bile,0.38
same,Concentrations of total residues,"[2]; carp Bile, 0.25 d after 5 mg/kg b. w. for 7 days",334.6 ± 69.0 mg/kg and 334.60 ± 69.02 mg/kg
same,Concentrations of total residues,"[2]; carp Bile, 1 d after 5 mg/kg b. w. for 7 days",89.59 ± 3.87 mg/kg
same,Concentrations of total residues,"[2]; carp Bile, 3 d after 5 mg/kg b. w. for 7 days",24.33 ± 1.91 mg/kg
same,Concentrations of total residues,"[2]; carp Bile, 7 d after 5 mg/kg b. w. for 7 days",1.34 ± 0.29 mg/kg
same,Concentrations of total residues,"[2]; carp Bile, 14 d after 5 mg/kg b. w. for 7 days",0.13 ± 0.05 mg/kg
same,Concentrations of total residues,"[2]; carp Bile, 21 d after 5 mg/kg b. w. for 7 days",0.01 ± 0.00 mg/kg
same,Ke of total residues,[2]; carp Blood,0.20
same,Concentrations of total residues,"[2]; carp Blood, 0.25 d after 5 mg/kg b. w. for 7 days",1.73 ± 0.18 mg/kg
same,Concentrations of total residues,"[2]; carp Blood, 1 d after 5 mg/kg b. w. for 7 days",1.06 ± 0.10 mg/kg
same,Concentrations of total residues,"[2]; carp Blood, 3 d after 5 mg/kg b. w. for 7 days",0.40 ± 0.08 mg/kg
same,Concentrations of total residues,"[2]; carp Blood, 7 d after 5 mg/kg b. w. for 7 days",0.19 ± 0.02 mg/kg
same,Concentrations of total residues,"[2]; carp Blood, 14 d after 5 mg/kg b. w. for 7 days",0.05 ± 0.01 mg/kg
same,Ke of total residues,[2]; carp Branchia,0.23
same,Concentrations of total residues,"[2]; carp Branchia, 0.25 d after 5 mg/kg b. w. for 7 days",12.73 ± 1.93 mg/kg
same,Concentrations of total residues,"[2]; carp Branchia, 1 d after 5 mg/kg b. w. for 7 days",5.46 ± 0.84 mg/kg
same,Concentrations of total residues,"[2]; carp Branchia, 3 d after 5 mg/kg b. w. for 7 days",1.66 ± 0.08 mg/kg
same,Concentrations of total residues,"[2]; carp Branchia, 7 d after 5 mg/kg b. w. for 7 days",0.22 ± 0.04 mg/kg
same,Concentrations of total residues,"[2]; carp Branchia, 14 d after 5 mg/kg b. w. for 7 days",0.05 ± 0.00 mg/kg
same,Concentrations of total residues,"[2]; carp Branchia, 21 d after 5 mg/kg b. w. for 7 days",0.01 ± 0.00 mg/kg
same,Ke of total residues,[2]; carp Colla piscis,0.24
same,Concentrations of total residues,"[2]; carp Colla piscis, 0.25 d after 5 mg/kg b. w. for 7 days",2.78 ± 0.76 mg/kg
same,Concentrations of total residues,"[2]; carp Colla piscis, 1 d after 5 mg/kg b. w. for 7 days",1.50 ± 0.22 mg/kg
same,Concentrations of total residues,"[2]; carp Colla piscis, 3 d after 5 mg/kg b. w. for 7 days",0.41 ± 0.04 mg/kg
same,Concentrations of total residues,"[2]; carp Colla piscis, 7 d after 5 mg/kg b. w. for 7 days",0.10 ± 0.02 mg/kg
same,Concentrations of total residues,"[2]; carp Colla piscis, 14 d after 5 mg/kg b. w. for 7 days",0.03 ± 0.01 mg/kg
same,Ke of total residues,[2]; carp Heart,0.30
same,Concentrations of total residues,"[2]; carp Heart, 0.25 d after 5 mg/kg b. w. for 7 days",5.37 ± 0.50 mg/kg
same,Concentrations of total residues,"[2]; carp Heart, 1 d after 5 mg/kg b. w. for 7 days",2.58 ± 0.57 mg/kg
same,Concentrations of total residues,"[2]; carp Heart, 3 d after 5 mg/kg b. w. for 7 days",1.11 ± 0.08 mg/kg
same,Concentrations of total residues,"[2]; carp Heart, 7 d after 5 mg/kg b. w. for 7 days",0.34 ± 0.05 mg/kg
same,Concentrations of total residues,"[2]; carp Heart, 14 d after 5 mg/kg b. w. for 7 days",0.14 ± 0.02 mg/kg
